Tests used:
[1] = target: T1, human C-terminal DNMT3A (a.a. 623-908) (Homo sapiens, UniProt Q9Y6K1); experiment: DNMT3A assay (restriction-based fluorescence assay); assay type: biochemical; details: for inhibition at 1 µM: compound at 1 μM; for inhibition at 3.2 µM: compound at 3.2 μM
T1 construct: The human C-terminal DNMT3A (a.a. 623-908); made in house
From the text: DNMT3A enzyme inhibition was adapted from the restriction-based fluorescence assay protocol described in Ceccaldi et al. (ChemBioChem 2011, 12, 1337-45). Briefly, a 5′-labelled biotin oligonucleotide is hybridized to its complementary strand labelled with 6-carboxyfluorescein at the 3′-end into a 384 well microplate (black Optiplates; Perkin Elmer) pre-coated with avidin. The duplex contains a unique CpG site overlapping with a restriction site of a methylation sensitive restriction enzyme. The human C-terminal DNMT3A (a.a. 623-908), produced as described in Gros et al. (Nucleic Acids Research 2013 41(19):e185), was added in each well (200 ng/well) and mixed with the chemical compounds at desired concentrations and freshly prepared AdoMet (20 μM final concentration) to start the reaction in a total volume of 50 μL. After 1 hour incubation at 37° C. each well were washed three times with PBS, Tween-20 0.05%, NaCl (500 mM) and three more times with PBST. Specific fluorescent signals were detected with the methylation-sensitive restriction enzyme HpyCH4IV (NEB) as described and measured on a Perkin Elmer Envision detector. The percentage of inhibition is reported. The formula used to calculate the percentage of inhibition is [(X−Y)/X]×100, where X is the signal determined in the absence of the inhibitor and Y is the signal obtained in the presence of the inhibitor. The concentration at which 50% of efficacy of inhibition is observed (EC50) was determined by analysis of a concentration range of the tested compound in triplicates. The non-linear regression fittings with sigmoidal dose-response (variable slope) were performed with GraphPad Prism 4.03 (GraphPad Software).

[2] = target: T2, His-DNMT1 (182 kDa, human) (Homo sapiens, UniProt P26358); experiment: DNMT1 assay (tritiated SAM Flashplate methylation assay); assay type: biochemical; details: for inhibition at 10 µM: compound at 10 μM; for inhibition at 32 µM: compound at 32 μM
T2 construct: His; made in house
Protocol: His-DNMT1 (182 kDa, human) was cloned, expressed and purified as described in Halby et al. (ChemBioChem 2012, 13, 157-65). The reaction was performed in a 10 μL total reaction volume in low volume NBS™ 384-well microplates (Corning), containing the tested compound (up to 1% DMSO), 1 μM of a SAM/[methyl-^3H] SAM (3 TBq/mmol, PerkinElmer) mix in a ratio of 3-to-1 (isotopic dilution 1*:3), 0.3 μM of biotinylated hemimethylated DNA duplex (5′-GATmCGCmCGATGmCGmCGAATmCGmCGATmCGATGmCGAT-3′ and BIOT-5′-[…]-3′), and 90 nM of DNMT1 in methylation buffer (20 mM HEPES pH 7.2, 1 mM EDTA, 50 mM KCl, 25 μg/mL BSA). The reaction was incubated at 37° C. for 2 hours. 8 μL are then transferred into a streptavidin 96-well scintillant coated Flashplate™ (PerkinElmer) containing 190 μL of 20 μM SAH in 50 mM Tris-HCl pH 7.4. The Flashplate™ was agitated at room temperature for 1 hour, washed three times with 200 μL of 0.05% Tween®-20 in 50 mM Tris-HCl pH 7.4, and read in 200 μL of 50 mM Tris-HCl pH 7.4 on TopCount NXT™ (PerkinElmer).

[3] = test system: KG-1 human leukemia cells; experiment: Anti-proliferative activity on KG-1 (ATPLite cell viability); assay type: cell-based; details: KG-1 cells; for inhibition at 0.1 µM: compound at 0.1 μM, read-out: % proliferation inhibition 0.1 μM; for inhibition at 1 µM: compound at 1 μM, read-out: % proliferation inhibition 1 μM; for inhibition at 5 µM: compound at 5 μM, read-out: % proliferation inhibition 5 μM; for inhibition at 10 µM: compound at 10 μM, read-out: % proliferation inhibition 10 μM
Protocol: Anti-Proliferative Activity. (on KG-1)
KG-1 human leukemia cells were obtained from the ATCC (USA) and cultivated in RPMI 1640 medium (with HEPES and Glutamine, BE12-115F, Lonza, France) supplemented with, respectively, 20% and 15% foetal calf serum (Lonza, France), at 37° C. and under 5% CO2. To measure the anti-proliferative properties of tested molecules, 2×10^4 cells are seeded at day 0 in a 96 wells plate. The compounds to be tested, stored at −20° C. as 10^−2 M stock solution in 100% DMSO, are freshly diluted on day 1 in RPMI 1640 medium, before adding a dose range of 3.2 nM to 10 μM to the cells. This treatment is repeated on day 2 and 3, and on day 4 cell viability is assessed using the ATPLite™ kit from Perkin (ATPlite™ 1 Step Luminescence Assay System, ref 3016739), following the provider instructions. The raw data are analyzed with GraphPad Prism software (v4.03) to generate EC50 values corresponding to the compound concentrations giving 50% reduction in cell viability. The values presented are the mean results of at least two independent experiments. […]
At the end of the experiment, cell viability was evaluated by determining the level of ATP released by viable cells.
EC50 values were determined with curve fitting analysis method (non linear regression model with a sigmoid dose response, variable Hill slope coefficient) provided by the Prism Software (GraphPad). Results were expressed as average EC50 values (concentration of tested compound that inhibits 50% of the maximum effect for the considered compound).

[4] = test system: luciferase reporter gene under the control of the partially methylated CMV promoter in KG-1 cell line; experiment: Gene expression (CMV-Luc reactivation) in KG-1 cells; assay type: cell-based, human; details: 24 h, induction factor vs DMSO control, mean of 3 experiments ± standard error; for Reactivation fold of luciferase gene reporter, 0.1 μM: compound at 0.1 μM; for Reactivation fold of luciferase gene reporter, 1 μM: compound at 1 μM; for Reactivation fold of luciferase gene reporter, 5 μM: compound at 5 μM; for Reactivation fold of luciferase gene reporter, 10 μM: compound at 10 μM
Protocol: Gene Expression. (CMV-Luc Reactivation)
KG-1 cell line, stably transfected with the luciferase Firefly (Luc+ from pGL3 by Promega) reporter gene under the control of the CMV promoter (from pEGFP-N1 by Clontech) partially methylated (50%), is seeded at 20,000 cell per well in 96-well plate. After 24 h of incubation in the presence of the compounds or the solvant DMSO, the induction of the promoter is measured by quantification of luciferase with the Brite-lite™ assay system (Perkin Elmer) according to the manufacturer protocol. The luminescence is measured on EnVision™ Multilabel Plate Reader (Perkin Elmer) and the data are expressed in induction factor compared to the DMSO control condition.

T1 sequence (Q9Y6K1 627-912): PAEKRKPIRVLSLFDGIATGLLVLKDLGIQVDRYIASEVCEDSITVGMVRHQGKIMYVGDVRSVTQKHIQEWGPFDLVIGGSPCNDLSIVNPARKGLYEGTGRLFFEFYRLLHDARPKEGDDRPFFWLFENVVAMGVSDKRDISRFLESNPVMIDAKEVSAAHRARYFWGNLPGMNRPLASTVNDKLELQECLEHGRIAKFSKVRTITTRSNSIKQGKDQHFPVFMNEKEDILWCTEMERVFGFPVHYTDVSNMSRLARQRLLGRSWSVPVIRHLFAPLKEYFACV
T2 sequence (P26358 whole entry): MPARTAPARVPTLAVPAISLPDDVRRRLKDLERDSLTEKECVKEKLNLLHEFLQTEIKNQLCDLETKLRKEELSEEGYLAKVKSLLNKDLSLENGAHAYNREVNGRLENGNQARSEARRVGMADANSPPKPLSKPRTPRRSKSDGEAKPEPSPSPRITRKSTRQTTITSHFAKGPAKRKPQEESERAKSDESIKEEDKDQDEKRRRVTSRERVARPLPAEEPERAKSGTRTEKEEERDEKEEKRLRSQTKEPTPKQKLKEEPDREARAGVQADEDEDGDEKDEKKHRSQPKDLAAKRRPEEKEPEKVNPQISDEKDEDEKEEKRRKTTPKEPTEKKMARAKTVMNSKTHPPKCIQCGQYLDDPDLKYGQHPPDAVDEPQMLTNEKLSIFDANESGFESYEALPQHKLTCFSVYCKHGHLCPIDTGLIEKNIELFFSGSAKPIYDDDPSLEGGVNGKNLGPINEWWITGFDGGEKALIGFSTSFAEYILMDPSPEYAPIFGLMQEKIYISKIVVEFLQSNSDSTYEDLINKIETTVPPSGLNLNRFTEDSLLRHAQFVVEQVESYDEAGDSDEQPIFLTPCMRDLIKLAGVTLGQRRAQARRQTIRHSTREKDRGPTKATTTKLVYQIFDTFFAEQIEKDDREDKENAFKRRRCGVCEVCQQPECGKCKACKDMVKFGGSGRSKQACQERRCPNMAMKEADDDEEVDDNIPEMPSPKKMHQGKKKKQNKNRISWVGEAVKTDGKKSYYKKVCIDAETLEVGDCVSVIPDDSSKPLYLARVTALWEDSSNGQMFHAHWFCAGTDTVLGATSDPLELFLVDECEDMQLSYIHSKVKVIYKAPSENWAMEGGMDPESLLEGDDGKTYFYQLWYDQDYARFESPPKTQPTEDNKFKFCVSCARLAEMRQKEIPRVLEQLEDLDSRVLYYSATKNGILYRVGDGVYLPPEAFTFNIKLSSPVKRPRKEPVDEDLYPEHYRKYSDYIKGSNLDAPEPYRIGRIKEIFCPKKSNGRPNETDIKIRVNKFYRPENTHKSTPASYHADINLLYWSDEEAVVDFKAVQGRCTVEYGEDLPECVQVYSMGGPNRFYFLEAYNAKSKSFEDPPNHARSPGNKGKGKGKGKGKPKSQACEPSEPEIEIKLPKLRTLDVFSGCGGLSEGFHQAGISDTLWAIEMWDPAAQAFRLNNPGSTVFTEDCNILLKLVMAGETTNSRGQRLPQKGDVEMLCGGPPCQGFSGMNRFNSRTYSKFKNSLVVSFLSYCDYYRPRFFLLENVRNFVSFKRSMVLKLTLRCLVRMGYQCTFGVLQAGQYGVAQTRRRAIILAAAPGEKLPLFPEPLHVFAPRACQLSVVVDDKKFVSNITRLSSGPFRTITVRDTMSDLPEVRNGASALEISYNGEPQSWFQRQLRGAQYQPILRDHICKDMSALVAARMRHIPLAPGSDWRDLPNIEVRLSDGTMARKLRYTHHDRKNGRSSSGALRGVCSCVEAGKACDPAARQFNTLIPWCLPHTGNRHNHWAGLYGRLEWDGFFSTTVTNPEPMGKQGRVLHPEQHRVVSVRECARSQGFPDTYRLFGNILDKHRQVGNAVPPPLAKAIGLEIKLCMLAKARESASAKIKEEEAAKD

| SMILES | inhibition at 1 µM [1] [%] | inhibition at 3.2 µM [1] [%] | inhibition at 10 µM [2] [%] | inhibition at 32 µM [2] [%] | inhibition at 0.1 µM [3] [%] | inhibition at 1 µM [3] [%] | inhibition at 5 µM [3] [%] | inhibition at 10 µM [3] [%] | Reactivation fold of luciferase gene reporter, 0.1 μM [4] [fold] | Reactivation fold of luciferase gene reporter, 1 μM [4] [fold] | Reactivation fold of luciferase gene reporter, 5 μM [4] [fold] | Reactivation fold of luciferase gene reporter, 10 μM [4] [fold] | EC50 [2] [µM] | melting point [°C] | EC50 [1] [µM] | EC50 ([3]; 96 h, treatment on days 1-3, viability on day 4 (ATPLite)) [µM] |
| --- | --- | --- | --- | --- | --- | --- | --- | --- | --- | --- | --- | --- | --- | --- | --- | --- |
| Oc1ccc2c(NCCCc3ccccc3)ncnc2c1CN1CCN(CCNc2ccnc3ccccc23)CC1 [Compound A, 4-((3-phenylpropyl)amino)-8-((1-(2-(quinolin-4-ylamino)ethyl)piperazin-1-ylmethyl))quinazoline-7-ol] | 0 | 18 | 0 | 0 | -0.8 | 6.1 | 29.7 | 84.5 | 1.1 ± 0.1 | 1.2 ± 0.1 | 4.4 ± 0.5 | 6.0 ± 0.6 |  |  |  |  |
| Clc1nc(NCCCc2ccccc2)c2ccc(OCC3CCN(CCNc4ccnc5ccccc45)CC3)cc2n1 [Compound B, 4-((3-phenylpropyl)amino)-2-chloro-7-((1-(2-(quinolin-4-ylamino)ethyl)piperidin-4-yl)methoxy)quinazoline] | 0 | 73 | 5 | 93 | -1.7 | 3.8 | 95.9 | 99.9 | 1.1 ± 0.0 | 1.4 ± 0.0 | 5.8 ± 1.6 | 0.0 ± 0.0 | 19 |  |  |  |
| CN1CCN(c2nc(NCCCc3ccccc3)c3ccc(OCC4CCN(CCNc5ccnc6ccccc56)CC4)cc3n2)CC1 [Compound C, 4-((3-phenylpropyl)amino)-7-((1-(2-(quinolin-4-ylamino)ethyl)piperidin-4-yl)methoxy)-2-(4-methylpiperazin-1-yl)quinazoline] | 0 | 43 | 0 | 94 | -3.1 | 5.7 | 99.1 | 99.7 | 1.1 ± 0.0 | 1.7 ± 0.1 | 0.1 ± 0.0 | 0.0 ± 0.0 | 23 |  |  |  |
| CCN(CC)CCNc1nc(NCCCc2ccccc2)c2ccc(OCC3CCN(CCNc4ccnc5ccccc45)CC3)cc2n1 [Compound D, 4-((3-phenylpropyl)amino)-N^2-(2-(diethylamino)ethylenediamine)-7-((1-(2-(quinolin-4-ylamino)ethyl)piperidin-4-yl)methoxy)quinazoline] | 52 | 81 | 35 | 98 | -2.3 | 13.2 | 79.7 | 99.5 | 1.1 ± 0.0 | 1.7 ± 0.0 | 12.7 ± 0.6 | 1.1 ± 1.0 | 13 |  |  |  |
| c1ccc(CN2CCC(Nc3nc(N4CCN(c5ccccc5)CC4)nc4cc(OCC5CCN(CCNc6ccnc7ccccc67)CC5)ccc34)CC2)cc1 [Compound G, N-(1-benzylpiperidin-4-yl)-2-(4-phenylpiperazin-1-yl)-7-((1-(2-(quinolin-4-ylamino)ethyl)piperidin-4-yl)methoxy)quinazolin-4-amine] | 57 | 95 | 54 | 100 | -2.2 | 32.2 | 99.6 | 99.8 | 1.1 ± 0.0 | 5.3 ± 0.4 | 0.2 ± 0.1 | 0.0 ± 0.0 | 10 | 122 to 124 |  |  |
| Clc1nc(NCCCc2ccccc2)c2ccc(OCC3CCN(CCNc4ccncc4)CC3)cc2n1 [Compound H] | 0 | 32 |  |  |  |  |  |  |  |  |  |  |  |  |  |  |
| COc1cc2c(NC3CCN(Cc4ccccc4)CC3)nc(N3CCN(c4ccccc4)CC3)nc2cc1OCC1CCN(CCNc2ccnc3ccccc23)CC1 [E, N-(1-benzylpiperidin-4-yl)-6-methoxy-2-(4-phenylpiperazin-1-yl)-7-((1-(2-(quinolin-4-ylamino)ethyl)piperidin-4-yl)methoxy)quinazolin-4-amine] | 74 | 100 | 59 | 100 | -2.3 | 15.4 | 92.1 | 99.8 | 1.1 ± 0.0 | 3.5 ± 0.0 | 1.3 ± 1.2 | 0.0 ± 0.0 | 10 | 124 to 126 | 0.6 | 2.5 |

Reference: patent publication US10450299B2, “Substituted quinazoline derivatives as DNA methyltransferase inhibitors” (Pierre Fabre Medicament, priority 2015, dated 2019)
